Measurements published in paper PMC7370100, “In Vitro Assessment of the Genotoxic Hazard of Novel Hydroxamic Acid- and Benzamide-Type Histone Deacetylase Inhibitors (HDACi)” (International Journal of Molecular Sciences, 2020).
Values belong to the compound of their own block, whether it stands above or below them.

Legend:
[1] = system: V79 cells
Description: We analyzed the frequency of micronuclei in binucleated cells, as described [86]. Briefly, logarithmically growing cells were treated with cytochalasin B (3 µg/m) for 24 h. After fixation with formaldehyde (3.7% in PBS, 20 min, RT) and washing with PBS, cells were permeabilized using precooled methanol (20 min, −20 °C.) After washing with PBS and rinsing the cell layer with PBS containing Triton X100 (PBST; 0.3% Triton X100 in PBS), DNA was stained by DAPI (4´,6-diamino-2-phenylindole) and the number of micronuclei was evaluated by fluorescence microscopy. Data shown are the mean ± SEM of three independent experiments with ≥1000 binucleated cells evaluated per experimental condition.

[2] = system: V79 cells; remark: listed apart in the source
Description: The formation of DNA strand breaks and apurinic/apyrimidinic sites was monitored employing the alkaline comet assay [87], which is part of the OECD guideline of in vivo genotoxicity testings and detects DNA strand breaks (DNA single- and double-strand breaks) and alkali-labile sites [87]. Briefly, after aspiration of the medium and trypsinization, cells were mixed with 0.5% melting agarose and transferred onto agarose-coated (1.5%) slides. After lysis in alkaline buffer (pH 10) (1 h, 4 °C, light protection) and unwinding of the DNA in precooled lysis buffer (pH >13) (20 min, 4 °C, light protection), electrophoresis was performed (electric current: 300 mA constant; 1 V/cm). After neutralization in salt buffer (pH 7.5) and staining with propidium iodide solution (50 µg/mL), comets were evaluated by fluorescence microscopy. Quantification of migrated DNA was performed with TriTek Comet Score™ software Version 1.5, evaluating ≥50 cells per condition (blinded assessment). […] Fold increase in tail intensities of treated cells were calculated by relating the % DNA in tail of treated cells to that of the corresponding untreated controls, which were set to 1.0 (see Figure 2B).

[3] = system: V79 hamster lung cells; test: Alamar blue assay (cell viability), V79 cells; format: cell-based; conditions: Alamar blue assay, approximate IC50
Description: (§1) V79 hamster lung cells, which are recommended in the OECD toxicology guidelines for hazard identification (i.e., cytotoxicity and genotoxicity) of chemicals, were purchased from the German Collection of Microorganisms and Cell Cultures (DSMZ, Braunschweig, Germany). They were cultured in Dulbecco´s modified Eagle medium and Ham´s F12 medium (DMEM/F12) (PromoCell, Heidelberg, Germany) containing 10% fetal calf serum at 37 °C in a humidified atmosphere containing 5% CO2. VC8 hamster cells were defective in DNA double-strand break (DSB) repair by homologous recombination (HR) due to the lack of functional BRCA2 protein [69, 70]. VC8 cells were provided by B. Kaina (Institute of Toxicology, Mainz, Germany). Nucleotide excision repair defective XPA and CSB deficient cells were also provided by B. Kaina and were described before. They were grown in DMEM containing 10% fetal calf serum. Human neuroblastoma cells (IMR-32 and SH-SY5Y) were purchased from the German Collection of Microorganisms and Cell Cultures (DSMZ, Braunschweig, Germany) and were used as a model of malignant cells. They were grown in DMEM or RPMI (Roswell park memorial institute) medium, respectively, containing 10% fetal calf serum. If not stated otherwise, HDACi were added to the exponentially growing cells and analyses were performed 6 h to 72 h later.
(§2) Cell viability was determined using the Alamar blue assay, which reflected the mitochondrial activity. Viable cells were characterized by an effective mitochondrial metabolization of the non-fluorescent dye resazurin (Sigma, Steinheim, Germany) to fluorescent resorufin (excitation: 535 nm, emission: 590 nm). Relative viability in the untreated control was set to 100%. In addition, the Neutral red assay, which measures the integrity of lysosomal membranes, was used to monitor cytotoxicity. To this end, cells were incubated with the Neutral red solution (0.01%) in an atmosphere containing 5% CO2 for 90 min before they were fixed (1% formaldehyde/1% CaCl2). Afterwards, the Neutral red that was taken up by the cells was extracted (50% ethanol/1% of acetic acid, 15 min at room temperature (RT)) and absorbance (540 nm) was measured. If not stated otherwise, data are shown as the mean ± standard deviation (SD) of two to three independent experiments each performed in quadruplicate. Approximate IC50 (~IC50, see Supplementary Table S1) were calculated from the corresponding dose-response curves.

[4] = system: IMR-32 neuroblastoma cells; test: Neutral red assay (cytotoxicity), IMR-32 cells; format: cell-based, human
Description: as §1, §2

[5] = system: V79 hamster lung cells; test: Neutral red assay (cytotoxicity), V79 cells; format: cell-based
Description: as §1, §2

[6] = system: SH-SY5Y neuroblastoma cells; test: Neutral red assay (cytotoxicity), SH-SY5Y cells; format: cell-based, human
Description: as §1, §2

[7] = system: IMR-32 neuroblastoma cells; test: Alamar blue assay (cell viability), IMR-32 cells; format: cell-based, human
Description: as §1, §2

[8] = system: SH-SY5Y neuroblastoma cells; test: Alamar blue assay (cell viability), SH-SY5Y cells; format: cell-based, human
Description: as §1, §2

[9] = system: XPA-deficient cells; test: Viability of XPA-deficient versus proficient fibroblasts (Alamar blue); format: cell-based, human; conditions: 72 h, in words
Description: Figure 7 Sensitivity of nucleotide excision repair (NER) defective cells to hydroxamic acid- and benzamide-type HDACi. Viability of wild-type human fibroblasts and fibroblasts defective in nucleotide excision repair (NER) pathways (i.e., global genome nucleotide excision repair (GG-NER) or transcription-coupled nucleotide excision repair (TC-NER)) due to a defect in Xeroderma pigmentosum group A protein (XPA) or Cockayne syndrome protein B (CSB), respectively, was analyzed 72 h after the addition of HDACi by the Alamar blue assay, as described in Methods. The DNA intrastrand cross-linking agent cisplatin was used for control. Data shown are the mean ± SD from three independent experiments (n = 3) each performed in triplicate (N = 3); ns, not significant; *, p ≤ 0.05; **, p ≤ 0.01 as compared to the corresponding untreated controls (Student´s t-test).
V79 hamster lung cells, which are recommended in the OECD toxicology guidelines for hazard identification (i.e., cytotoxicity and genotoxicity) of chemicals, were purchased from the German Collection of Microorganisms and Cell Cultures (DSMZ, Braunschweig, Germany). They were cultured in Dulbecco´s modified Eagle medium and Ham´s F12 medium (DMEM/F12) (PromoCell, Heidelberg, Germany) containing 10% fetal calf serum at 37 °C in a humidified atmosphere containing 5% CO2. VC8 hamster cells were defective in DNA double-strand break (DSB) repair by homologous recombination (HR) due to the lack of functional BRCA2 protein [69, 70]. VC8 cells were provided by B. Kaina (Institute of Toxicology, Mainz, Germany). Nucleotide excision repair defective XPA and CSB deficient cells were also provided by B. Kaina and were described before. […]
Cell viability was determined using the Alamar blue assay, which reflected the mitochondrial activity. […] Afterwards, the Neutral red that was taken up by the cells was extracted (50% ethanol/1% of acetic acid, 15 min at room temperature (RT)) and absorbance (540 nm) was measured. […] Approximate IC50 (~IC50, see Supplementary Table S1) were calculated from the corresponding dose-response curves.

[10] = system: VC8 hamster cells (BRCA1/2 defect); test: Viability of DSB repair defective VC8 versus wild-type V79 cells (Alamar blue); format: cell-based; conditions: 72 h, Alamar blue, in words
Description: as §1, §2

[11] = 24 h, approximate IC50, read-out: IC50 - 24 h Treatment, IMR-32
[12] = 72 h, approximate IC50, read-out: IC50 - 72 h Treatment, IMR-32
[13] = 24 h, approximate IC50, read-out: IC50 - 24 h Treatment, SH-SY5Y
[14] = 72 h, approximate IC50, read-out: IC50 - 72 h Treatment, SH-SY5Y

Compound: COS(C)(=O)=O [MMS, methyl methanesulfonate]
frequency of micronuclei [1]: substantial clastogenicity
DNA strand breaks (comet assay) [2]: substantially increased the level of DNA strand breaks
Mean (% DNA in tail) ([2]; hamster, 0.25 mM): 50.9 % DNA in tail

IC50 [7, 11]: 12 µM
IC50 [7, 12]: 2 µM
IC50 [8, 13]: 10 µM
IC50 [8, 14]: 3 µM
Compound: CCCCON(Cc1ccc(C(=O)NO)cc1)C(=O)Nc1cc(C)cc(C)c1 [MPK264]
IC50 ([3]; 24 h, read-out: IC50 - 24 h Treatment, V79): 22 µM
IC50 ([3]; 72 h, read-out: IC50 - 72 h Treatment, V79): 19 µM
IC50 [4, 11]: 16 µM
IC50 [4, 12]: 2 µM
IC50 ([5]; 24 h, approximate IC50, read-out: IC50 - 24 h Treatment, V79): 20 µM
IC50 ([5]; 72 h, approximate IC50, read-out: IC50 - 72 h Treatment, V79): 17 µM
IC50 [6, 13]: 24 µM
IC50 [6, 14]: 3 µM

Compound: N.N.[Cl][Pt][Cl] [cisplatin]
sensitivity of XPA-deficient versus XPA proficient cells [9]: XPA deficient cells are hypersensitive

Compound: Nc1ccccc1NC(=O)c1ccc(CNc2nccc(-c3cccnc3)n2)cc1 [mocetinostat]
sensitivity of VC8 cells versus V79 cells [10]: hypersensitive

Compound: C/C=C1\NC(=O)[C@H]2CSSCC/C=C/[C@H](CC(=O)N[C@H](C(C)C)C(=O)N2)OC(=O)[C@H](C(C)C)NC1=O [romidepsin]
sensitivity of VC8 cells versus V79 cells [10]: hypersensitive
